Measured values as given in patent US20250345446A1 (Draupnir Bio ApS, priority 2022, published 2025).
Like-named read-outs stand apart in the source and are kept apart here. Blank lines part the entries; values can stand above or below the molecule they belong to. *: point of attachment. Biotin = O=C1N[C@H]2[C@H](CS[C@H]2CCCCC(=O)*)N1

Assays:
[1] = tested on: HEK293 cells expressing full length sortilin receptor; experiment: Cellular uptake of NA650 in HEK293/sortilin cells; assay type: cell-based; conditions: for IC50: SEQ ID NO.: 147 (300 nM) and NA650 (100 nM), 3 h incubation, competitor titrated, read-out: IC50 of inhibition of degrader induced internalization of NA650; for AUC score, target internalization: Table 6, NA650 (100 nM), 3 h, biotin warhead compounds
Method: Cellular uptake of NA650 was investigated in HEK293 cells expressing full length sortilin receptor (Petersen et. al.). Cells were seeded in poly-L-lysine coated 96-well plates (Perkin Elmer) (40K/well) in 50 μL culture medium (DMEM (Lonza)+10% FBS (SigmaAldrich)+1% penicillin-streptomycin (SigmaAldrich)+1% GlutaMAX (Gibco)+100 μg/mL Zeocin (Invitrogen)) and incubated overnight in cell incubator (37° C., humidified, 5% CO2).
Culture medium was replaced with assay medium (DMEM (Lonza)+10% fetal bovine serum (SigmaAldrich)+1% penicillin-streptomycin (SigmaAldrich)+1% GlutaMAX (Gibco)) containing NA650 (Invitrogen) (100 nM) (Thermo Fischer) and peptidic bifunctional compounds (9.8 nM to 10 μM). Cells were incubated for 3 h in cell incubator before they were washed in dPBS (Bionordika). The DyLight650 signal in the cell layer was detected using a fluorescence plate reader (BMG Labtech Clariostar).
Cellular uptake of NA650 was investigated in HEK293 cells expressing full length sortilin receptor using a methodology analogous to example 3.

[2] = target: T1, soluble ectodomain of sortilin-6his (Homo sapiens, UniProt Q99523, V650M); experiment: MST binding to soluble ectodomain of sortilin-6his
T1 construct: the soluble ectodomain of sortilin-6his is measured by microscale thermophoresis (MST)
T1 sequence (Q99523 with tags, fused parts or gaps V650M): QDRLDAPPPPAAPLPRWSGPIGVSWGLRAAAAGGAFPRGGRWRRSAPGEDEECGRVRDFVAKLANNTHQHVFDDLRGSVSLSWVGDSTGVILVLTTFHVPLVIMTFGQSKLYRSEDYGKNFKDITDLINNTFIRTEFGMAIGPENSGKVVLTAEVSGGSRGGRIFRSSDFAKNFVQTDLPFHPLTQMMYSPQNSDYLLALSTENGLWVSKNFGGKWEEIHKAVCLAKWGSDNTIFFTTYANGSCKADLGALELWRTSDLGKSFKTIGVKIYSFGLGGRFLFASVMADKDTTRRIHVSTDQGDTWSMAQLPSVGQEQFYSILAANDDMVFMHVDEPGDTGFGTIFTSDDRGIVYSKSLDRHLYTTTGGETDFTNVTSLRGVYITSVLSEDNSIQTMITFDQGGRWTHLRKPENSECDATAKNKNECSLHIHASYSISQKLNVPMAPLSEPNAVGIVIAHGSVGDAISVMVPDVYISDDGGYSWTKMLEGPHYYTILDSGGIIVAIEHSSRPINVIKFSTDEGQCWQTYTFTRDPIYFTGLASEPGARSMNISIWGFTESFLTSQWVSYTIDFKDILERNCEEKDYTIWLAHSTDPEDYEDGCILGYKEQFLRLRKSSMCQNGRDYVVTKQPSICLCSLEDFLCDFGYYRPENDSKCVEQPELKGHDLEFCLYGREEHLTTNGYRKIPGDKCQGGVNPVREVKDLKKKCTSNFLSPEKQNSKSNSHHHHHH

[3] = tested on: HEK293 cells expressing full length sortilin receptor; experiment: Cellular uptake of AlexaFluor488-anti-DNP antibody; assay type: cell-based; conditions: for AUC score, target internalization: Table 7, AlexaFluor488-anti-DNP antibody (100 nM), 3 h, DNP warhead compounds; for cell associated FI signal, response to concentration series (in words): 3 h incubation, 1.9 nM to 2 μM, AlexaFluor488-anti-DNP antibody 100 nM
Description: In this example, the small molecule degraders consist of a sortilin binder linked to warhead DNP to target anti-DNP antibodies (BF001 to BF016)
Cellular uptake of AlexaFluor488-anti-DNP antibody (Thermo Fisher) was investigated in HEK293 cells expressing full length sortilin receptor in a methodology analogous to example 3.

[4] = target: T2, Sortilin-6His (Homo sapiens (Human), UniProt Q99523 78-755); experiment: MST on labelled sortilin-6his ectodomain; KD score: ++ <100 nM, + 100-2000 nM
T2 construct: In MST it was labelled non-covalently with RED-tris-NTA; also called soluble ectodomain of sortilin-6his; fluorescent sortilin-6his
T2 sequence (Q99523 78-755 V650M limits assumed): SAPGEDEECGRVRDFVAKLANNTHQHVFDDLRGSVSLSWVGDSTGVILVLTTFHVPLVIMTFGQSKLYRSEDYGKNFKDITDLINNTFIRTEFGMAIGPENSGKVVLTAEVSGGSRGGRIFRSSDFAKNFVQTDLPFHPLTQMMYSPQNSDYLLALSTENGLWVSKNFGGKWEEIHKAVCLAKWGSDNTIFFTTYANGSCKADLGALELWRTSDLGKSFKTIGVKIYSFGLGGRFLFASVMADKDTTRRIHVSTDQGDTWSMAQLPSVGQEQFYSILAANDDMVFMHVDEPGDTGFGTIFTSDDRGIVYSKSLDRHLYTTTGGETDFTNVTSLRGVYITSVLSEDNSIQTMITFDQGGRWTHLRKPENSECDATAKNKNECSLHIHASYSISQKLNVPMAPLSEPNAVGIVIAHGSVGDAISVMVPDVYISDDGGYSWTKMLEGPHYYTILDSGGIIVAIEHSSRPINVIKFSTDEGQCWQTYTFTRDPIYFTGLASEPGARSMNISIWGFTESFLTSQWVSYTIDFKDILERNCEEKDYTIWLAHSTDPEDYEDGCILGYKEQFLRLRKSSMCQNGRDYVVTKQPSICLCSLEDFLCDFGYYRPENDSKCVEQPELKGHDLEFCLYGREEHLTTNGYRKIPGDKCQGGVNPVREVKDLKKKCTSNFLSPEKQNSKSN

[5] = Table 4, small molecule bifunctional compounds, MST, read-out: KD score, binding to sortilin (Kd)

Molecule: Cc1cccc(NC(=O)c2ccc(C(F)(F)F)cc2C(=O)O)n1 [AF38469, reference compound]
IC50 [1]: 589 nM

Molecule: CC(C)(C)CC[C@H](NC(=O)c1ccc(Oc2cccc(OCCOCCOCCOCCOCCOCCNc3ccc([N+](=O)[O-])cc3[N+](=O)[O-])c2)nc1)C(=O)O [BF004, (2S)-2-[[6-[3-[2-[2-[2-[2-[2-[2-(2,4-dinitroanilino)ethoxy]ethoxy]ethoxy]ethoxy]ethoxy]ethoxy]phenoxy]pyridine-3-carbonyl]amino]-5,5-dimethyl-hexanoic acid]
Kd [2]: 1 to 10 nM | AUC score, target internalization [3]: + (AUC < 10.000)

Molecule: CC(C)(C)CC[C@H](NC(=O)c1ccc(Oc2cccc(C(=O)NCCOCCOCCOCCOCCOCCOCCOCCNc3ccc([N+](=O)[O-])cc3[N+](=O)[O-])c2)nc1)C(=O)O [BF006, (2S)-2-[[6-[3-[2-[2-[2-[2-[2-[2-[2-[2-(2,4-dinitroanilino)ethoxy]ethoxy]ethoxy]ethoxy]ethoxy]ethoxy]ethoxy]ethylcarbamoyl]phenoxy]pyridine-3-carbonyl]amino]-5,5-dimethyl-hexanoic acid]
Kd [2]: 1 to 10 nM | cell associated FI signal, response to concentration series (in words) [3]: bell-shaped response | AUC score, target internalization [3]: + (AUC < 10.000)

Molecule: CC(C)(C)CC[C@H](NC(=O)c1ccc(Oc2cccc(C(=O)NCCOCCOCCOCCOCCOCCOCCNc3ccc([N+](=O)[O-])cc3[N+](=O)[O-])c2)nc1)C(=O)O [BF008, (2S)-2-[[6-[3-[2-[2-[2-[2-[2-[2-[2-(2,4-dinitroanilino)ethoxy]ethoxy]ethoxy]ethoxy]ethoxy]ethoxy]ethylcarbamoyl]phenoxy]pyridine-3-carbonyl]amino]-5,5-dimethyl-hexanoic acid]
Kd [2]: 1 to 10 nM | AUC score, target internalization [3]: + (AUC < 10.000)

Molecule: CC(C)(C)CC[C@H](NC(=O)c1ccc(Oc2cccc3c(C(=O)NCCCNC(=O)CCOCCOCCOCCOCCNc4ccc([N+](=O)[O-])cc4[N+](=O)[O-])cccc23)nc1)C(=O)O [BF010, (2S)-2-[[6-[[5-[3-[3-[2-[2-[2-[2-(2,4-dinitroanilino)ethoxy]ethoxy]ethoxy]ethoxy]propanoylamino]propylcarbamoyl]-1-naphthyl]oxy]pyridine-3-carbonyl]amino]-5,5-dimethyl-hexanoic acid]
Kd [2]: 1 to 10 nM | AUC score, target internalization [3]: ++ (AUC > 10.000)

Molecule: CC(C)(C)CC[C@H](NC(=O)c1ccc(Oc2cccc(C(=O)NCCOCCOCCOCCOCCOCCNc3ccc([N+](=O)[O-])cc3[N+](=O)[O-])c2)nc1)C(=O)O [BF011, (2S)-2-[[6-[3-[2-[2-[2-[2-[2-[2-(2,4-dinitroanilino)ethoxy]ethoxy]ethoxy]ethoxy]ethoxy]ethylcarbamoyl]phenoxy]pyridine-3-carbonyl]amino]-5,5-dimethyl-hexanoic acid]
cell associated FI signal, response to concentration series (in words) [3]: bell-shaped response | AUC score, target internalization [3]: + (AUC < 10.000)

Molecule: CC(C)(C)CC[C@H](NC(=O)c1ccc(Oc2cccc(OCCOCCOCCOCCOCCOCCOCCNc3ccc([N+](=O)[O-])cc3[N+](=O)[O-])c2)nc1)C(=O)O [BF014, (2S)-2-[[6-[3-[2-[2-[2-[2-[2-[2-[2-(2,4-dinitroanilino)ethoxy]ethoxy]ethoxy]ethoxy]ethoxy]ethoxy]ethoxy]phenoxy]pyridine-3-carbonyl]amino]-5,5-dimethyl-hexanoic acid]
Kd [2]: 10 to 250 nM | AUC score, target internalization [3]: ++ (AUC > 10.000)

Kd [2, 5]: 1 to 10 nM
Molecule: CC(C)(C)CC[C@H](NC(=O)c1ccc(Oc2cccc(C(=O)NCCOCCOCCOCCOCCOCCOCCOCCOCCNC(=O)CCCC[C@@H]3SC[C@@H]4NC(=O)N[C@@H]43)c2)nc1)C(=O)O [BF018, (2S)-2-[[6-[3-[2-[2-[2-[2-[2-[2-[2-[2-[2-[5-[(3aS,4S,6aR)-2-oxo-1,3,3a,4,6,6a-hexahydrothieno[3,4-d]imidazol-4-yl]pentanoylamino]ethoxy]ethoxy]ethoxy]ethoxy]ethoxy]ethoxy]ethoxy]ethoxy]ethylcarbamoyl]phenoxy]pyridine-3-carbonyl]amino]-5,5-dimethyl-hexanoic acid]
AUC score, target internalization [1]: ++ (AUC > 100)

Kd [2, 5]: 10 to 250 nM
Molecule: CC(C)(C)CC[C@H](NC(=O)c1ccc(Oc2cccc(OCCOCCOCCNC(=O)CCCC[C@@H]3SC[C@@H]4NC(=O)N[C@@H]43)c2)nc1)C(=O)O [BF022, (S)-5,5-dimethyl-2-(6-(3-(2-(2-(2-(5-((3aS,4S,6aR)-2-oxohexahydro-1H-thieno[3,4-d]imidazol-4-yl)pentanamido)ethoxy)ethoxy)ethoxy)phenoxy)nicotinamido) hexanoic acid]
AUC score, target internalization [1]: + (AUC < 100)

Kd [2, 5]: 10 to 250 nM
Molecule: CC(C)(C)CC[C@H](NC(=O)c1ccc(Oc2cccc3cc(C(=O)NCCCNC(=O)CCCC[C@@H]4SC[C@@H]5NC(=O)N[C@@H]54)ccc23)nc1)C(=O)O [BF024]
AUC score, target internalization [1]: + (AUC < 100)

Kd [2, 5]: 10 to 250 nM
Molecule: CC(C)(C)CC[C@H](NC(=O)c1ccc(Oc2cccc3c(C(=O)NCCCNC(=O)CCOCCOCCOCCOCCOCCNC(=O)CCCC[C@@H]4SC[C@@H]5NC(=O)N[C@@H]54)cccc23)nc1)C(=O)O [BF028, (2S)-2-[[6-[[5-[3-[3-[2-[2-[2-[2-[2-[5-[(3aS,4S,6aR)-2-oxo-1,3,3a,4,6,6a-hexahydrothieno[3,4-d]imidazol-4-yl]pentanoylamino]ethoxy]ethoxy]ethoxy]ethoxy]ethoxy]propanoylamino]propylcarbamoyl]-1-naphthyl]oxy]pyridine-3-carbonyl]amino]-5,5-dimethyl-hexanoic acid]
AUC score, target internalization [1]: ++ (AUC > 100)

Molecule: O=C(O)CCCC[C@@H]1SC[C@@H]2NC(=O)N[C@@H]21 [biotin, reference compound]
IC50 ([1]; Homo sapiens, HEK293): 56 nM

KD [4]: < 100 nM
B1: Biotin-GGSGGFQLL-OH (peptide)
peptide: Biotin-GGSGGFQLL-OH
SMILES: CC(C)C[C@H](NC(=O)[C@H](CC(C)C)NC(=O)[C@H](CCC(N)=O)NC(=O)[C@H](Cc1ccccc1)NC(=O)CNC(=O)CNC(=O)[C@H](CO)NC(=O)CNC(=O)CNC(=O)CCCC[C@@H]1SC[C@@H]2NC(=O)N[C@@H]21)C(=O)O

KD [4]: < 100 nM
B2: Biotin-GGRQLL-OH (peptide)
peptide: Biotin-GGRQLL-OH
SMILES: CC(C)C[C@H](NC(=O)[C@H](CC(C)C)NC(=O)[C@H](CCC(N)=O)NC(=O)[C@H](CCCNC(=N)N)NC(=O)CNC(=O)CNC(=O)CCCC[C@@H]1SC[C@@H]2NC(=O)N[C@@H]21)C(=O)O

KD [4]: < 100 nM
B3: Biotin-RQLL-OH (peptide)
peptide: Biotin-RQLL-OH
SMILES: CC(C)C[C@H](NC(=O)[C@H](CC(C)C)NC(=O)[C@H](CCC(N)=O)NC(=O)[C@H](CCCNC(=N)N)NC(=O)CCCC[C@@H]1SC[C@@H]2NC(=O)N[C@@H]21)C(=O)O

KD [4]: 100 to 2000 nM
B4: Biotin-GGSRQLL-OH (peptide)
peptide: Biotin-GGSRQLL-OH
SMILES: CC(C)C[C@H](NC(=O)[C@H](CC(C)C)NC(=O)[C@H](CCC(N)=O)NC(=O)[C@H](CCCNC(=N)N)NC(=O)[C@H](CO)NC(=O)CNC(=O)CNC(=O)CCCC[C@@H]1SC[C@@H]2NC(=O)N[C@@H]21)C(=O)O
